Key:
[1] = tested on: c-myc G-quadruplex DNA FRET probe (FAM/TAMRA) (DNA, G4) TGGGGAGGGTGGGGAGGGTGGGGAAGG; assay: FRET melting; conditions: 100 mM KCl, 10 mM Na3AsO4; 10 mM Tris-HCl pH 7.4; 0.2 μM DNA; complex 0.15 or 0.30 μM, not given
[2] = tested on: c-myc G-quadruplex DNA (DNA, G4) TGGGGAGGGTGGGGAGGGTGGGGAAGG; assay: fluorescent intercalator displacement; conditions: 100 mM KCl, thiazole orange 1 μM displaced, DNA 0.5 μM
[3] = tested on: c-myc G-quadruplex DNA (DNA, G4) TGGGGAGGGTGGGGAGGGTGGGGAAGG; assay: UV-vis titration; conditions: 100 mM KCl
[4] = tested on: human breast cancer MCF-7 cells; assay: MTT assay, MCF-7; assay type: cell-based; conditions: 72 h, 570 nm
[5] = tested on: human keratinocyte Hacat cells; assay: Cytotoxic activity against Hacat cells; assay type: cell-based; conditions: 72 h incubation
Method: The cytotoxic activity of the ligands and arene Ru(II)-modified compounds […] 1 . The cytotoxic activities of complexes against human keratinocyte […] 72 h incubation. Comp. L1 L2 3 6 […] 7. Multiple gene expression in glioblastoma multiforme Figure S20. Multiple gene expression in glioblastoma multiforme(Copyright © 2017 […], Boxi Kang. Zhang's Lab.). The darker the color, the higher the gene expression in glioblastoma multiforme. As shown in the heat map, c-myc gene is highly expressed in glioblastoma multiforme (GBM) compared with other G-quadruplex DNA (Tel, Bcl-2, c-kit, k-ras). 8. […]

[6] = tested on: c-myc G-quadruplex DNA; assay: UV–vis absorption titration with c-myc G-quadruplex DNA; assay type: binding; conditions: 10 mM Tris-HCl buffer (pH 7.4), 100 mM KCl, [DNA]=100 μM
Method: Electron spectroscopy is one of the most widely used techniques to evaluate the binding ability between metal complexes and DNA. UV–vis spectra titration experiments were conducted to further clarify the binding behavior of these complexes with c-myc G-quadruplex DNA.
The intramolecular c-myc G-quadruplex DNA structure was prepared by incubating Pu22 in a 10 mM Tris-HCl buffer (pH 7.4) containing 100 mM KCl, which was heated to 95 °C for 5 min, cooled to room temperature overnight, and stored at 4 °C for 24 h. The binding parameters of the arene Ru(II) complexes and c-myc G-quadruplex DNA were measured at room temperature using the UV–vis absorption spectra (Shimadzu UV-2550 spectrophotometer). […] The intrinsic binding constant (Kb) was calculated using the following:[DNA]/(εa − εf) = [DNA]/(εb − εf) + 1/[Kb(εb − εf)](2)
In the formula, εa, εf, and εb are the apparent coefficients, and the free and fully bound forms of the metal complex extinction coefficients, respectively. […] Kb is the ratio of the slope to the intercept.

[7] = tested on: human lung cancer A549 cells; assay: MTT assay, A549; assay type: cell-based; conditions: 72 h, 570 nm
[8] = tested on: human normal liver cells; assay: Toxicity to human normal liver cells; conditions: read-out: IC50 human normal liver cells
[9] = tested on: human glioblastoma U87 cells; assay: MTT assay, U87; assay type: cell-based; conditions: 72 h, 570 nm
[10] = tested on: human liver carcinoma HepG2 cells; assay: MTT assay, HepG2; assay type: cell-based; conditions: 72 h, 570 nm
[11] = 10 mM Tris-HCl pH 7.4, room temperature
[12] = 10 mM Tris-HCl pH 7.4, room temperature, 20 μM complex

SMILES	ΔTm [1] [°C]	DC50 [2, 11] [µM]	Kb [3, 12]	IC50 [4] [µM]	IC50 [7] [µM]	IC50 [9] [µM]	IC50 [10] [µM]	further results
Cc1ccccc1.Fc1cccc(-c2nc3c4cccnc4c4ncccc4c3[nH]2)c1F.[Cl-].[Ru+2]	15.05	9.93						Kb [3]: ~ 110 × 10^6 M^-1
Fc1ccc(-c2nc3c4cccnc4c4ncccc4c3[nH]2)c(F)c1 [L2, 2-(2,4-Di-fluorophenyl) Imidazole[4,5f][1,10]-Phenanthroline]				1.48 ± 0.09	3.42 ± 0.13	5.87 ± 0.27	0.12 ± 0.01	IC50 [5]: 2.72 ± 0.06 µM; UV absorption peak of the ligand after the addition of DNA [6]: did not change significantly; IC50 [8]: 0.18 µM
Fc1ccc(-c2nc3c4cccnc4c4ncccc4c3[nH]2)c(F)c1.[Cl-].[Ru+2].c1ccccc1	7.23		~ 48.3 × 10^6 M^-1					DC50 ([2]; 10 mM Tris-HCl pH 7.4, text b19 prints 7.8): 7.6 µM
Fc1ccc(-c2nc3c4cccnc4c4ncccc4c3[nH]2)c(F)c1								binding ([3]; 10 mM Tris-HCl pH 7.4, DNA 100 μM, no significant absorption change): weak
Fc1cccc(-c2nc3c4cccnc4c4ncccc4c3[nH]2)c1F [L1, 2-(2,3-Di-fluorophenyl) Imidazole [4,5f][1,10]-Phenanthroline]				4.25 ± 0.18	7.99 ± 0.05	14.3 ± 0.47	0.29 ± 0.01	IC50 [5]: 1.85 ± 0.03 µM; IC50 [8]: 0.34 µM
Fc1cccc(-c2nc3c4cccnc4c4ncccc4c3[nH]2)c1F.[Cl-].[Ru+2].c1ccccc1	13.09	6.6	~ 67.5 × 10^6 M^-1					
N.N.[Cl][Pt][Cl] [Cisplatin, reference compound]				15.3 ± 0.18	17.3 ± 0.26	32.6 ± 0.85	9.9 ± 0.06	

The next lines start with results.

ΔTm [1] [°C]	DC50 [2, 11] [µM]	Kb [3, 12]	IC50 [4] [µM]	IC50 [7] [µM]	IC50 [9] [µM]	IC50 [10] [µM]	SMILES	further results
5.07	10.26	~ 134 × 10^6 M^-1					Cc1ccc(C(C)C)cc1.Fc1cccc(-c2nc3c4cccnc4c4ncccc4c3[nH]2)c1F.[Cl-].[Ru+2]	
0.4	15.6	~ 14.6 × 10^6 M^-1					Cc1ccc(C(C)C)cc1.Fc1ccc(-c2nc3c4cccnc4c4ncccc4c3[nH]2)c(F)c1.[Cl-].[Ru+2]	
6.03	10.8						Cc1ccccc1.Fc1ccc(-c2nc3c4cccnc4c4ncccc4c3[nH]2)c(F)c1.[Cl-].[Ru+2]	Kb [3]: ~ 41.1 × 10^6 M^-1
